Earlier results in patent US5071850A, “2,3-dihydro-3-arylalkylaminoalkyl-4H-1,3-benzoxazin-4-one derivatives, their preparation and their application as medicinal products which are useful in therapy” (Pierre Fabre Medicament, priority 1988, dated 1991).

Settings: Finkelstein and Chiang, J. Med. Chem. 11, 1038 (1968); cited from earlier work

Question: For `CCN(CC)CCN1COc2ccccc2C1=O` [3-(2-diethylaminoethyl)-2,3-dihydro-4H-1,3-benzoxazin-4-one], which pharmacological result is on record?
Answer: Its pharmacological result is “inactive”.
